Measured values as given in patent US20240083846A1, “SMAC MIMETICS FOR TREATMENT OF CANCER, PROCESS FOR PREPARATION AND PHARMACEUTICAL COMPOSITION THEREOF” (COUNCIL OF SCIENTIFIC & INDUSTRIAL RESEARCH, priority 2020, published 2024).

Legend:
SW 620 cells = assay: SRB cytotoxicity assay, SW 620; type: cell-based; details: Homo sapiens, SW-620
Experimental: (§1) In vitro cytotoxic activities of different compounds were assessed by using standard SRB assay in different cells. The absorbance of the treated and untreated cells was measured on a multi-well scanning spectrophotometer (Epoch Microplate Reader, Biotek, USA) at a wavelength of 510 nm. Percent growth inhibition was calculated by using the formula […].

MCF-7 cells = assay: SRB cytotoxicity assay, MCF-7; type: cell-based; details: Homo sapiens, MCF7, Breast
Experimental: as §1
(§2) SMAC mimetics promotes tumor cell selective cytotoxic effects. SW 620, HT 29, HCT 116 and VERO cells were treated with series of Smac mimetics at 10 μM dose for 48 hours and cytotoxicity was measured by SRB assay. As C6 had shown robust in-vitro cytotoxic effect against tumor cells but not to VERO cells, we determined IC50 value of C6 against different types of cancer cell lines. ICso values are represented in Table 2.

U937 cells = assay: SRB cytotoxicity assay, U937; type: cell-based; details: Homo sapiens, U-937, Lymphoma
Experimental: as §1, §2

[1] = Organ distribution analysis; type: in vivo, mice; details: FIG. 9 right panel
HEP-G2 cells = assay: SRB cytotoxicity assay, HEP-G2; type: cell-based; details: Homo sapiens, HepG2, Liver
Experimental: as §1, §2

A172 cells = assay: SRB cytotoxicity assay, A172; type: cell-based; details: Homo sapiens, A 172, Brain
Experimental: as §1, §2

VERO cells = assay: SRB cytotoxicity assay, VERO; type: cell-based, monkey
Experimental: as §1

[2] = SRB cytotoxicity assay, VERO; type: cell-based, monkey; details: monkey, VERO cells; 10 μM, 48 hours, SRB assay; read-out: In vitro cytotoxicity at 10 μM dose, VERO (percent growth inhibition)
Experimental: as §1

XIAP BIR3 protein = XIAP BIR3 protein (Homo sapiens, UniProt P98170); assay: Fluorescence polarization competition binding assay, XIAP BIR3; details: displacement of AVPIAQK(FAM)-OH, fluorescence polarization; read-out: Target Binding BIR3 Ki
Sequence of XIAP BIR3 protein (P98170 241-356 limits assumed): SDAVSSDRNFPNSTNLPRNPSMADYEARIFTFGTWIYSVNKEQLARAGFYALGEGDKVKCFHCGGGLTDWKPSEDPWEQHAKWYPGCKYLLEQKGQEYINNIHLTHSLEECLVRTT
Experimental: The SMAC mimetics 1-9 were tested for their ability to displace the fluorescent labeled peptide AVPIAQK(FAM)-OH from XIAP BIR2 or XIAP BIR3 protein. The dose dependent binding experiment were then carried out by sequentially increasing the concentration of SMAC mimetic compounds at constant concentration of fluorescent labeled peptide and XIAP BIR2 or XIAP BIR3 protein. IC5- values were determined from the plot draw by prism software using nonlinear least-squares analysis. The Ki values of the SMAC mimetics were calculated which was based upon the measured IC50 values, the Kd value between tracer AVPIAQK(FAM)-OH and XIAP BIR2 or XIAP BIR3 complex, and the concentrations of the protein and tracer in the competition assay by using the web based program which are freely accessed at http://sw16.im.med.umich.edu/software/calc_ki/.In-silico.
Binding isotherms were plotted between FP reading versus log values of protein concentration in nM. The data was analysed using GraphPad prism and Kd values were determined using Boltzmann-sigmoidal non-linear regression curve fitting.

[3] = Pharmacokinetics of C6 in mice (IV, SC, oral)
Experimental: SIF, SGF and other stability studies were performed by following standard protocol. […] Mice were administered their respective doses according to body weight by intravenous (lateral vein), Subcutaneous route and Oral respectively. Blood samples were collected at 0.083, 0.25, 0.5, 0.75, 1, 2, 4, 8, 12, 24 and 48 hours. Plasma was separated and processed for analysis. For pharmacokinetic analysis, plasma concentration versus time data were plotted and analyzed by non-compartmental analysis method using WinNonlin (Pharsight, Mountain View, CA) software.

PANC-1 cells = assay: SRB cytotoxicity assay, PANC-1; type: cell-based; details: Homo sapiens, Pancreas
Experimental: as §1, §2

PARP, Caspase-3, cIAP-1 = assay: Apoptosis antibody array / apoptotic markers; type: cell-based; details: treated cells vs control, FIG. 2 right and FIG. 3
Experimental: Apoptosis array was performed by using Proteome Profiler Human Apoptosis Array Kit (ARY009) from R&D Systems following the manufacturer's instructions. The detailed assay procedure was followed. The images were captured by the gel documentation system (Bio-Rad chemidoc XRS plus), while ImageJ software (NIH) was used for analysis and quantification. Plotly software was used for heatmap generation (Montreal, Canada).

SK-OV-3 cells = assay: SRB cytotoxicity assay, SK-OV-3; type: cell-based; details: Homo sapiens, Ovary
Experimental: as §1, §2

Q: Which results are given for CC[C@H](C)[C@H](NC(=O)[C@@H]1CC[C@H](c2ccc(C)o2)N1C(=O)[C@@H](NC(=O)[C@H](C)NC)C(C)C)C(=O)NC(c1ccccc1)c1ccccc1 [Compound 6, (2S,5R)-N-((2S,3S)-1-(benzhydrylamino)-3-methyl-1-oxopentan-2-yl)-1-((S)-3-methyl-2-((S)-2-(methylamino)propanamido)butanoyl)-5-(5-methylfuran-2-yl)pyrrolidine-2-carboxamide]?
A: inhibition at 10 µM (SW 620 cells; 10 μM, 48 hours, SRB assay, read-out: In vitro cytotoxicity at 10 μM dose, SW 620 (percent growth inhibition)): 59.27 ± 0.1%; IC50 (SW 620 cells; Colon, SW620): 4.31 µM; IC50 (MCF-7 cells): 5.02 µM; IC50 (U937 cells): 8.98 µM; Presence in tumor tissues [1]: presence of C6 in tumor tissues in significant quantity; IC50 (HEP-G2 cells): 7.3 µM; IC50 (A172 cells): 6.88 µM; IC50 (VERO cells; Primates, Kidney (monkey), VERO): > 10 µM; Toxicity against VERO cells (in words) (VERO cells; non-human VERO cells): limited or minimal toxicity; inhibition at 48 h, 10 μM [2]: 18.4 ± 2.1%; Ki (XIAP BIR3 protein): 0.58 µM; C1 ([3]; mice, IV route, 4 mg/kg): 17 ± 4 mL/min/kg; C1 ([3]; mice, Oral route, 30 mg/kg): 29.8 ± 5.33 mL/min/kg; Vd ([3]; mice, Oral route, 30 mg/kg): 9.52 ± 3.75 L/kg; C1 ([3]; mice, SC route, 30 mg/kg): 29.2 ± 4 mL/min/kg; Vd ([3]; mice, SC route, 30 mg/kg): 5.32 ± 0.98 L/kg; AUC(0-inf) ([3]; mouse, plasma, iv, 4 mg/kg): 4110 ± 852 ng·h/mL; Cmax ([3]; mouse, plasma, iv, 4 mg/kg): 10200 ± 2630 ng/mL; MRT ([3]; mouse, plasma, iv, 4 mg/kg): 1.72 ± 0.46 h; Tmax ([3]; mouse, plasma, iv, 4 mg/kg): 0.08 h; Vd ([3]; mouse, plasma, iv, 4 mg/kg): 0.28 ± 0.12 L/kg; bioavailability ([3]; mouse, plasma, oral, 30 mg/kg): 55.9 ± 11.2%; AUC(0-inf) ([3]; mouse, plasma, po, 30 mg/kg): 17200 ± 3430 ng·h/mL; Cmax ([3]; mouse, plasma, po, 30 mg/kg): 4490 ± 1510 ng/mL; MRT ([3]; mouse, plasma, po, 30 mg/kg): 4.18 ± 1.81 h; Tmax ([3]; mouse, plasma, po, 30 mg/kg): 1.08 ± 0.47 h; AUC(0-inf) ([3]; mouse, plasma, sc, 30 mg/kg): 17400 ± 2220 ng·h/mL; Cmax ([3]; mouse, plasma, sc, 30 mg/kg): 5020 ± 854 ng/mL; MRT ([3]; mouse, plasma, sc, 30 mg/kg): 8.92 ± 1.35 h; Tmax ([3]; mouse, plasma, sc, 30 mg/kg): 0.88 ± 0.21 h; bioavailability ([3]; mouse, plasma, subcutaneous, 30 mg/kg): 56.6 ± 7.21%; IC50 (PANC-1 cells): 5.83 µM; Hallmark apoptotic features (PARP, Caspase-3, cIAP-1) (PARP, Caspase-3, cIAP-1): cleavage of PARP and Caspase-3 and degradation of cIAP-1; IC50 (SK-OV-3 cells): 3.91 µM
